System: 186277-243-T-J2-PDC complex spheroid viability
Assay: Anticancer human tumor 186277-243-T-J2-PDC patient-derived colon adenocarcinoma cell line growth inhibition
Details: for IC50: curve of first compound; for viability, T/C: stronger effect = lower value
Method in brief: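 Complex spheroids of tumor cells with HUVEC and human MSCs, exposed to iadademstat combined with other agents. Each agent tested in half-log steps from near clinical Cmax (else 10 microM top), DMSO ≤0.25%.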

[1] = second compound 0.1 µM, first compound 0.00949 µM
[2] = second compound 0.1 µM, first compound 0.03 µM
[3] = second compound 0.1 µM, first compound 0.0949 µM
[4] = second compound 0.1 µM, first compound 0.3 µM
[5] = second compound 0.316 µM, first compound 0.00949 µM
[6] = second compound 0.316 µM, first compound 0.03 µM
[7] = second compound 0.316 µM, first compound 0.0949 µM
[8] = second compound 0.316 µM, first compound 0.3 µM
[9] = second compound 1 µM, first compound 0.00949 µM
[10] = second compound 1 µM, first compound 0.03 µM
[11] = second compound 1 µM, first compound 0.0949 µM
[12] = second compound 1 µM, first compound 0.3 µM
[13] = second compound 3.16 µM, first compound 0.00949 µM
[14] = second compound 3.16 µM, first compound 0.03 µM
[15] = second compound 3.16 µM, first compound 0.0949 µM
[16] = second compound 3.16 µM, first compound 0.3 µM
[17] = second compound 10 µM, first compound 0.00949 µM
[18] = second compound 10 µM, first compound 0.03 µM
[19] = second compound 10 µM, first compound 0.0949 µM
[20] = second compound 10 µM, first compound 0.3 µM
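Also: 7 day exposure to compounds.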
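For viability, T/C in this document: 100% = DMSO vehicle control viability.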

## CC1(C)CCC(CN2CCN(c3ccc(C(=O)NS(=O)(=O)c4ccc(NCC5CCOCC5)c([N+](=O)[O-])c4)c(Oc4cnc5[nH]ccc5c4)c3)CC2)=C(c2ccc(Cl)cc2)C1 + NC1CCC(NC2CC2c2ccccc2)CC1
Second compound 0.1 µM
  IC50: 4.91 µM
Second compound 0.316 µM
  IC50: 4.97 µM
Second compound 1 µM
  IC50: 5.12 µM
Second compound 3.16 µM
  IC50: 5.04 µM
Second compound 10 µM
  IC50: 4.57 µM
Second compound 0.1 µM, first compound 0.0316 µM
  viability, T/C: 92%
Second compound 0.1 µM, first compound 0.1 µM
  viability, T/C: 114%
Second compound 0.1 µM, first compound 0.316 µM
  viability, T/C: 101%
Second compound 0.1 µM, first compound 1 µM
  viability, T/C: 97.7%
Second compound 0.1 µM, first compound 3.16 µM
  viability, T/C: 73.5%
Second compound 0.1 µM, first compound 10 µM
  viability, T/C: 12%
Second compound 0.316 µM, first compound 0.0316 µM
  viability, T/C: 106%
Second compound 0.316 µM, first compound 0.1 µM
  viability, T/C: 117%
Second compound 0.316 µM, first compound 0.316 µM
  viability, T/C: 99.4%
Second compound 0.316 µM, first compound 1 µM
  viability, T/C: 109%
Second compound 0.316 µM, first compound 3.16 µM
  viability, T/C: 74.9%
Second compound 0.316 µM, first compound 10 µM
  viability, T/C: 11.5%
Second compound 1 µM, first compound 0.0316 µM
  viability, T/C: 100%
Second compound 1 µM, first compound 0.1 µM
  viability, T/C: 105%
Second compound 1 µM, first compound 0.316 µM
  viability, T/C: 106%
Second compound 1 µM, first compound 1 µM
  viability, T/C: 101%
Second compound 1 µM, first compound 3.16 µM
  viability, T/C: 77.9%
Second compound 1 µM, first compound 10 µM
  viability, T/C: 11.3%
Second compound 3.16 µM, first compound 0.0316 µM
  viability, T/C: 107%
Second compound 3.16 µM, first compound 0.1 µM
  viability, T/C: 107%
Second compound 3.16 µM, first compound 0.316 µM
  viability, T/C: 115%
Second compound 3.16 µM, first compound 1 µM
  viability, T/C: 95.8%
Second compound 3.16 µM, first compound 3.16 µM
  viability, T/C: 79.2%
Second compound 3.16 µM, first compound 10 µM
  viability, T/C: 8.73%
Second compound 10 µM, first compound 0.0316 µM
  viability, T/C: 98.9%
Second compound 10 µM, first compound 0.1 µM
  viability, T/C: 107%
Second compound 10 µM, first compound 0.316 µM
  viability, T/C: 96.6%
Second compound 10 µM, first compound 1 µM
  viability, T/C: 97.6%
Second compound 10 µM, first compound 3.16 µM
  viability, T/C: 69.1%
Second compound 10 µM, first compound 10 µM
  viability, T/C: 9.39%

## CCN(c1cc(-c2ccc(CN3CCOCC3)cc2)cc(C(=O)NCc2c(C)cc(C)[nH]c2=O)c1C)C1CCOCC1 + NC1CCC(NC2CC2c2ccccc2)CC1
Second compound 0.1 µM
  IC50: > 3 µM
Second compound 0.316 µM
  IC50: > 3 µM
Second compound 1 µM
  IC50: > 3 µM
Second compound 3.16 µM
  IC50: > 3 µM
Second compound 10 µM
  IC50: > 3 µM
[1]
  viability, T/C: 108%
[2]
  viability, T/C: 94%
[3]
  viability, T/C: 108%
[4]
  viability, T/C: 116%
Second compound 0.1 µM, first compound 0.949 µM
  viability, T/C: 105%
Second compound 0.1 µM, first compound 3 µM
  viability, T/C: 110%
[5]
  viability, T/C: 112%
[6]
  viability, T/C: 102%
[7]
  viability, T/C: 110%
[8]
  viability, T/C: 112%
Second compound 0.316 µM, first compound 0.949 µM
  viability, T/C: 113%
Second compound 0.316 µM, first compound 3 µM
  viability, T/C: 113%
[9]
  viability, T/C: 122%
[10]
  viability, T/C: 121%
[11]
  viability, T/C: 108%
[12]
  viability, T/C: 111%
Second compound 1 µM, first compound 0.949 µM
  viability, T/C: 111%
Second compound 1 µM, first compound 3 µM
  viability, T/C: 102%
[13]
  viability, T/C: 110%
[14]
  viability, T/C: 115%
[15]
  viability, T/C: 107%
[16]
  viability, T/C: 117%
Second compound 3.16 µM, first compound 0.949 µM
  viability, T/C: 121%
Second compound 3.16 µM, first compound 3 µM
  viability, T/C: 111%
[17]
  viability, T/C: 105%
[18]
  viability, T/C: 94.8%
[19]
  viability, T/C: 95.9%
[20]
  viability, T/C: 107%
Second compound 10 µM, first compound 0.949 µM
  viability, T/C: 109%
Second compound 10 µM, first compound 3 µM
  viability, T/C: 98.3%

## Nc1ncn(C2CC(O)C(CO)S2)c(=O)n1 (stereo not given) + NC1CCC(NC2CC2c2ccccc2)CC1
Second compound 0.1 µM
  IC50: 0.0776 µM
Second compound 0.316 µM
  IC50: 0.074 µM
Second compound 1 µM
  IC50: 0.0724 µM
Second compound 3.16 µM
  IC50: 0.0753 µM
Second compound 10 µM
  IC50: 0.089 µM
Second compound 0.1 µM, first compound 0.000949 µM
  viability, T/C: 125%
Second compound 0.1 µM, first compound 0.003 µM
  viability, T/C: 126%
[1]
  viability, T/C: 132%
[2]
  viability, T/C: 107%
[3]
  viability, T/C: 38.1%
[4]
  viability, T/C: 9.48%
Second compound 0.316 µM, first compound 0.000949 µM
  viability, T/C: 108%
Second compound 0.316 µM, first compound 0.003 µM
  viability, T/C: 129%
[5]
  viability, T/C: 123%
[6]
  viability, T/C: 105%
[7]
  viability, T/C: 34.9%
[8]
  viability, T/C: 10.6%
Second compound 1 µM, first compound 0.000949 µM
  viability, T/C: 115%
Second compound 1 µM, first compound 0.003 µM
  viability, T/C: 125%
[9]
  viability, T/C: 146%
[10]
  viability, T/C: 90%
[11]
  viability, T/C: 40.3%
[12]
  viability, T/C: 11.5%
Second compound 3.16 µM, first compound 0.000949 µM
  viability, T/C: 119%
Second compound 3.16 µM, first compound 0.003 µM
  viability, T/C: 132%
[13]
  viability, T/C: 140%
[14]
  viability, T/C: 109%
[15]
  viability, T/C: 35.7%
[16]
  viability, T/C: 12.7%
Second compound 10 µM, first compound 0.000949 µM
  viability, T/C: 118%
Second compound 10 µM, first compound 0.003 µM
  viability, T/C: 125%
[17]
  viability, T/C: 144%
[18]
  viability, T/C: 112%
[19]
  viability, T/C: 46.9%
[20]
  viability, T/C: 13.3%

Reference: PubChem BioAssay AID1918933 (Molecular Pharmacology Branch, DTP, NCI, 2023)
